Measured values taken from publication PMC8619046, “ABCB1 and ABCG2 Control Brain Accumulation and Intestinal Disposition of the Novel ROS1/TRK/ALK Inhibitor Repotrectinib, While OATP1A/1B, ABCG2, and CYP3A Limit Its Oral Availability” (Pharmaceutics, 2021).
“And” between values parts separate entries of the source, which are not always exact repeats. Equal entries are not always repeated. Where two headings read alike, the source gives them in different places.

Columns and labels:
[1] = 8-h oral plasma pharmacokinetics and tissue distribution, female wild-type, Cyp3a−/− and Cyp3aXAV mice; type: in vivo; conditions: 10 mg/kg oral; for Tmax: median (range); for Tmax / SIC (% of dose) / Fold change AUC0–8h / Fold change SIC (% of dose) / Fold increase Cbrain / Fold increase Cliver / Fold increase ratio (brain-to-plasma) / Fold increase ratio (liver-to-plasma) / Kp at 8 h / concentration at 8 h / half-life / Cmax / AUC(0-t): 8 h; for Fold change AUC0–8h / Fold change SIC (% of dose) / Fold increase Cbrain / Fold increase Cliver / Fold increase ratio (brain-to-plasma) / Fold increase ratio (liver-to-plasma): vs wild-type; for Kp at 8 h / concentration at 8 h / half-life / Cmax / AUC(0-t): female, po; for half-life: elimination half-life; for AUC(0-t): read-out: AUC0–8h
From the text: Mice with similar average ages (and body weights) were randomly allocated in experimental groups as far as possible. Mice were maintained in a temperature-controlled and specific pathogen-free environment with a 12-h light and 12-h dark cycle and they received a standard diet (Transbreed, SDS Diets, Technilab-BMI, Someren, The Netherlands) and acidified water ad libitum. […] Given the objective main readout (repotrectinib plasma and tissue concentrations as measured by LC-MS/MS), no blinding method was applied.
Repotrectinib was dissolved in dimethyl sulfoxide (DMSO) at a concentration of 50 mg/mL. This stock solution was first diluted 3-fold with ethanol/polysorbate 80 (1/1; v/v), followed by further dilution with a 10 mM hydrochloric acid solution, yielding a dosing solution of 1 mg/mL, freshly prepared on the day of experiment. Final concentrations of the solvents in the administration solution were: 2%, 2%, 2%, and 94% (all v/v) for DMSO, ethanol, polysorbate 80, and 10 mM hydrochloric acid solution, respectively.
To minimize variation in absorption upon oral administration, mice were fasted for 2–3 h before repotrectinib (10 mg/kg body weight) was administered by gavage into the stomach at 10 µL/g body weight, with a blunt-ended needle. Tail vein serial blood samples were collected at 0.125, 0.25, 0.5, 1, 2 and 4 h using heparinized capillary tubes (Sarstedt, Nümbrecht, Germany) for the 8-h experiments. For the 4- and 2-h experiments, blood samplings were performed from the tail vein with the same schedule, but terminated at 2 and 1 h, respectively. Eight, four, or two hours after oral administration, mice were deeply anesthetized with 2–3% isoflurane, followed by cardiac puncture to collect blood in Eppendorf tubes containing heparin as an anticoagulant. Brain, liver, spleen, kidney, lung, small intestine, and testis were rapidly collected after sacrificing the mice by cervical dislocation. The small intestinal contents (SIC) were separated from small intestinal tissue (SI), which was flushed and rinsed with cold saline to remove any residual feces. Brain, liver, spleen, kidney, lung, SI, SIC, and testis were homogenized with 1, 3, 1, 2, 1, 3, 2, and 1 mL of 2% BSA (w/v), respectively. Plasma fraction was isolated from blood by centrifugation at 9000× g for 6 min at 4 °C. All samples were stored at −30 °C until analysis.
A sensitive and specific liquid chromatography-tandem mass spectrometry method using protein precipitation pre-treatment was adopted to quantify the concentration of repotrectinib in DMEM medium, plasma samples and tissue homogenates.
A non-compartmental model using the PKSolver add-in program for Microsoft Excel was adopted to calculate the pharmacokinetic parameters of repotrectinib. Oral availability was assessed by the plasma area under the curve (AUC), calculated using repotrectinib plasma concentration-time curves with the linear trapezoidal rule without extrapolating the infinity. Statistical testing was performed in Graphpad Prism7 (Graphpad Software, La Jolla, CA, USA). All data are presented as geometric means ± SD. Heteroscedastic data were log-transformed before applying statistical analysis. When differences between two groups were compared, the two-sided unpaired Student’s t test was used. One-way analysis of variance (ANOVA) was applied when multiple groups were compared, and the Bonferroni post hoc correction was used to accommodate multiple testing. Differences were considered statistically significant when P < 0.05.

[2] = test system: ROS1-positive advanced NSCLC; conditions: cited from earlier work; for confirmed objective response rate (ORR): preliminary TRIDENT-1 data
[3] = FVB, mouse, plasma, 10 mg/kg, female Cyp3aXAV mice
[4] = FVB, mouse, plasma, 10 mg/kg, female Cyp3a−/− mice
[5] = FVB, mouse, plasma, 10 mg/kg, female wild-type mice

SMILES: C[C@H]1CNC(=O)c2cnn3ccc(nc23)N[C@H](C)c2cc(F)ccc2O1 [repotrectinib]
- Tmax ([1]; FVB, mouse, plasma, female wild-type mice, read-out: Tmax): 0.5 h
- plasma AUC0–8h, fold decrease ([1]; female Cyp3aXAV mice compared to Cyp3a−/− mice): 2.0 fold
- SIC (% of dose) ([1]; female Cyp3aXAV mice): 1.68 ± 0.63 % of dose
- Fold change AUC0–8h ([1]; female Cyp3aXAV mice): 1.16
- Fold change SIC (% of dose) ([1]; female Cyp3aXAV mice): 0.81
- Fold increase Cbrain ([1]; female Cyp3aXAV mice): 1.57
- Fold increase Cliver ([1]; female Cyp3aXAV mice): 1.13
- Fold increase ratio (brain-to-plasma) ([1]; female Cyp3aXAV mice): 1.54
- Fold increase ratio (liver-to-plasma) ([1]; female Cyp3aXAV mice): 1.32
- SIC (% of dose) ([1]; female Cyp3a−/− mice): 5.11 ± 2.83 % of dose
- Fold change SIC (% of dose) ([1]; female Cyp3a−/− mice): 2.46
- Fold increase Cbrain ([1]; female Cyp3a−/− mice): 4.16
- Fold increase Cliver ([1]; female Cyp3a−/− mice): 4.11
- Fold increase ratio (brain-to-plasma) ([1]; female Cyp3a−/− mice): 0.85
- Fold increase ratio (liver-to-plasma) ([1]; female Cyp3a−/− mice): 0.90
- Fold change AUC0–8h ([1]; female Cyp3a−/− mice, 10 mg/kg): 2.3 and 2.31
- SIC (% of dose) ([1]; female wild-type mice): 2.08 ± 1.35 % of dose
- Fold change AUC0–8h ([1]; female wild-type mice): 1.00
- Fold change SIC (% of dose) ([1]; female wild-type mice): 1.00
- Fold increase Cbrain ([1]; female wild-type mice): 1.00
- Fold increase Cliver ([1]; female wild-type mice): 1.00
- Fold increase ratio (brain-to-plasma) ([1]; female wild-type mice): 1.00
- Fold increase ratio (liver-to-plasma) ([1]; female wild-type mice): 1.00
- Kp at 8 h ([1]; Cyp3aXAV (>99% FVB background), mouse, brain/plasma, 10 mg/kg, female Cyp3aXAV mice, read-out: Brain-to-plasma ratio): 0.4 ± 0.09
- concentration at 8 h ([1]; Cyp3aXAV (>99% FVB background), mouse, liver, 10 mg/kg, female Cyp3aXAV mice, read-out: Cliver): 1380 ± 440 ng/mL
- Kp at 8 h ([1]; Cyp3a−/− (>99% FVB background), mouse, brain/plasma, 10 mg/kg, female Cyp3a−/− mice, read-out: Brain-to-plasma ratio): 0.22 ± 0.08
- concentration at 8 h ([1]; Cyp3a−/− (>99% FVB background), mouse, liver, 10 mg/kg, female Cyp3a−/− mice, read-out: Cliver): 5020 ± 1920 ng/mL
- concentration at 8 h ([1]; FVB, mouse, brain, 10 mg/kg, female Cyp3aXAV mice, read-out: Cbrain): 80.2 ± 35.3 ng/g
- concentration at 8 h ([1]; FVB, mouse, brain, 10 mg/kg, female Cyp3a−/− mice, read-out: Cbrain): 213 ± 53.7 ng/g
- concentration at 8 h ([1]; FVB, mouse, brain, 10 mg/kg, female wild-type mice, read-out: Cbrain): 51.2 ± 17.8 ng/g
- Kp at 8 h ([1]; FVB, mouse, liver, 10 mg/kg, female Cyp3aXAV mice, read-out: Liver-to-plasma ratio): 7.1 ± 2.11
- Kp at 8 h ([1]; FVB, mouse, liver, 10 mg/kg, female Cyp3a−/− mice, read-out: Liver-to-plasma ratio): 4.81 ± 0.76
- Kp at 8 h ([1]; FVB, mouse, liver, 10 mg/kg, female wild-type mice, read-out: Liver-to-plasma ratio): 5.36 ± 0.54
- half-life [1, 3]: 1.6 ± 0.2 h
- half-life [1, 4]: 2.5 ± 0.9 h
- half-life [1, 5]: 1.6 ± 0.4 h
- Cmax [1, 3]: 5560 ± 610 ng/mL
- AUC(0-t) [1, 3]: 18900 ± 3650 ng·h/mL
- Cmax [1, 4]: 8280 ± 930 ng/mL
- AUC(0-t) [1, 4]: 37600 ± 2830 ng·h/mL
- Cmax [1, 5]: 4800 ± 1780 ng/mL
- AUC(0-t) [1, 5]: 16300 ± 6350 ng·h/mL
- Kp at 8 h ([1]; wild-type (>99% FVB background), mouse, brain/plasma, 10 mg/kg, female wild-type mice, read-out: Brain-to-plasma ratio): 0.26 ± 0.12
- concentration at 8 h ([1]; wild-type (>99% FVB background), mouse, liver, 10 mg/kg, female wild-type mice, read-out: Cliver): 1220 ± 650 ng/mL
- Tmax ([1]; female Cyp3aXAV mice): 0.5 (0.25–0.5) h
- Tmax ([1]; female Cyp3a−/− mice): 0.5 (0.125–0.5) h
- confirmed objective response rate (ORR) ([2]; TKI-naïve ROS1 + NSCLC patients): 86%
- confirmed objective response rate (ORR) ([2]; TKI-pretreated patients): 50%
- treatment-related adverse events, severity ([2]; majority of events, manageable): grade 1 or grade 2
- most common adverse effect ([2]; on-going phase I clinical trial (NCT03063116)): dizziness
- patients with prominent clinical activity ([2]; patients who had disease progression on prior TRK inhibitors): 50%
